Where a name gives a salt, the structure may show the parent alone.
The compounds below were run against T1, human TRPC6 (Homo sapiens, UniProt Q9Y210) (assay: TRPC6 calcium flux assay (FLIPR, OAG-stimulated calcium influx)). Conditions: HEK293 cells stably transfected with human TRPC6, read-out: hTRPC6 Potency.
T1 construct: expressed in transfected cells
T1 sequence (Q9Y210 1-931): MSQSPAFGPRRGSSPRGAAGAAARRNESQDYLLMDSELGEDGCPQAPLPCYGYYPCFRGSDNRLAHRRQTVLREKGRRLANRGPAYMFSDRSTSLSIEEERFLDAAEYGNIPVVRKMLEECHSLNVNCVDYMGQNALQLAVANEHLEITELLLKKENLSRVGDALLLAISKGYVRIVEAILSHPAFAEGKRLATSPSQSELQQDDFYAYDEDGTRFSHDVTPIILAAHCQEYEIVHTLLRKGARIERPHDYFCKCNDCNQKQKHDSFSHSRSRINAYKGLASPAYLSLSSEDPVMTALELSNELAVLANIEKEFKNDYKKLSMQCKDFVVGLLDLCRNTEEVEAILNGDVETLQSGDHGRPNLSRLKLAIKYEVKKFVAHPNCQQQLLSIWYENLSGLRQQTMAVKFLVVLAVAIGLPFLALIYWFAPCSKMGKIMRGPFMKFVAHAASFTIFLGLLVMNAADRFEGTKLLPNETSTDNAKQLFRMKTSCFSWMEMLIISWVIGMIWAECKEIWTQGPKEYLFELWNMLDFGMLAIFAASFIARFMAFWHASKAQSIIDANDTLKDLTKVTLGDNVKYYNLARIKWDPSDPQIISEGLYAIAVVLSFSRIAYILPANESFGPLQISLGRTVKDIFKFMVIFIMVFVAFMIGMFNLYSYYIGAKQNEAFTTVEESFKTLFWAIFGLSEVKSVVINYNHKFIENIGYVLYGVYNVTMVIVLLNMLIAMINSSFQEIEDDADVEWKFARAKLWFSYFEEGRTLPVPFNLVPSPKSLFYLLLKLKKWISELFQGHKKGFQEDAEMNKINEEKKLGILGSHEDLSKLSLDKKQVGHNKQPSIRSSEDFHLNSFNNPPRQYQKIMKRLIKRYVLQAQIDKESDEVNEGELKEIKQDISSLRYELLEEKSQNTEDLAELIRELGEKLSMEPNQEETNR
Type: cell-based
Method in brief: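 IC50 derived by plotting background-corrected peak fluorescence (180 s window, normalized to OAG-triggered signal vs buffer) against dose. Stable human TRPC6 HEK293 line was dye-loaded, exposed to compound 25 min, then challenged with 50 uM final OAG in 2 mM Ca2+ HEPES buffer pH 7.2, 0.5% DMSO.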
In the case of `CN(C)C(=O)Cn1c(N2CC[C@H](F)[C@H](N)C2)nc2cc(Cl)ccc21` [Example 471, 2-(2-((3R,4S)-3-amino-4-fluoropiperidin-1-yl)-5-chloro-1H-benzo[d]imidazol-1-yl)-N,N-dimethylacetamide], the IC50 is reported as 360 nM.
In the case of `N#Cc1ccc2c(c1)CC[C@@H]2n1c(N2CC[C@@H](F)[C@H](N)C2)nc2ccccc21` [Example 232, (S)-1-(2-((3R,4R)-3-amino-4-fluoropiperidin-1-yl)-1H-benzo[d]imidazol-1-yl)-2,3-dihydro-1H-indene-5-carbonitrile hydrochloride], the IC50 is reported as 2.16 nM.
For `CN(C)C(=O)Cn1c(N2CC[C@@H](F)[C@H](N)C2)nc2ccc(Cl)cc21` [Example 502, 2-(2-((3R,4R)-3-amino-4-fluoropiperidin-1-yl)-6-chloro-1H-benzo[d]imidazol-1-yl)-N,N-dimethylacetamide], the IC50 was 9.09 nM.
With `N#Cc1cnc(Cn2c(N3CC[C@@H](F)[C@H](N)C3)nc3cc(F)cc(F)c32)cn1` [Example 252, 5-((2-((3R,4R)-3-amino-4-fluoro-1-piperidinyl)-5,7-difluoro-1H-benzimidazol-1-yl)methyl)-2-pyrazinecarbonitrile] the IC50 was 8.76 nM.
`N[C@@H]1CN(c2nc3cc(F)c(F)cc3n2CC(=O)N2CCCC3COCCC32)CC[C@H]1F` (stereo partly drawn) [Example 639, 2-(2-((3R,4R)-3-amino-4-fluoropiperidin-1-yl)-5,6-difluoro-1H-benzo[d]imidazol-1-yl)-1-(octahydro-1H-pyrano[4,3-b]pyridin-1-yl)ethanone] was tested, and the IC50 was 657 nM.
In the case of `N[C@@H]1CN(c2nc3cc(F)c(F)cc3n2CC(=O)N2Cc3cccnc3C2)CC[C@H]1F` [Example 632, 2-(2-((3R,4R)-3-amino-4-fluoropiperidin-1-yl)-5,6-difluoro-1H-benzo[d]imidazol-1-yl)-1-(5H-pyrrolo[3,4-b]pyridin-6(7H)-yl)ethanone], the IC50 is reported as 230 nM.
With `CC(C)(C#N)C1CCN(C(=O)Cn2c(N3CC[C@@H](F)[C@H](N)C3)nc3cc(F)c(F)cc32)CC1` [Example 653, 2-(1-(2-(2-((3R,4R)-3-amino-4-fluoropiperidin-1-yl)-5,6-difluoro-1H-benzo[d]imidazol-1-yl)acetyl)piperidin-4-yl)-2-methylpropanenitrile] the IC50 was > 3750 nM.
In the case of `CN(CC(F)(F)F)C(=O)Cn1c(N2CCC(F)(CN)C2)nc2cc(F)ccc21` (stereo not shown) [Example 487, 2-(2-(3-(aminomethyl)-3-fluoropyrrolidin-1-yl)-5-fluoro-1H-benzo[d]imidazol-1-yl)-N-methyl-N-(2,2,2-trifluoroethyl)acetamide], the IC50 is reported as > 3750 nM.
`N[C@@H]1CN(c2nc3cc(F)c(F)cc3n2CC(=O)N2CC3CC2CO3)CC[C@H]1F` (stereo partly drawn) [Example 619, 2-(2-((3R,4R)-3-amino-4-fluoropiperidin-1-yl)-5,6-difluoro-1H-benzo[d]imidazol-1-yl)-1-(2-oxa-5-azabicyclo[2.2.1]heptan-5-yl)ethanone] showed an IC50 of 57.4 nM.
With `N#Cc1ccc2nc(N3CC[C@@H](F)[C@H](N)C3)n(Cc3cnc(C#N)cn3)c2c1` [Example 249, 2-((3R,4R)-3-amino-4-fluoro-1-piperidinyl)-1-((5-cyano-2-pyrazinyl)methyl)-1H-benzimidazole-6-carbonitrile] the IC50 was 7.65 nM.
`N#Cc1ccc2c(c1)nc(N1CCC(F)(F)[C@H](N)C1)n2Cc1ncc(Cl)cn1` [Example 42, (R)-2-(3-amino-4,4-difluoropiperidin-1-yl)-1-((5-chloropyrimidin-2-yl)methyl)-1H-benzo[d]imidazole-5-carbonitrile] was tested, and the IC50 was 1940 nM.
Work on `C[C@H](c1ccc(C#N)cn1)n1c(N2CC[C@@H](F)[C@H](N)C2)nc2ccccc21` [Example 297, 6-((R)-1-(2-((3R,4R)-3-amino-4-fluoropiperidin-1-yl)-1H-benzo[d]imidazol-1-yl)ethyl)nicotinonitrile hydrochloride] yielded an IC50 of 78.5 nM.
With `N#Cc1ccc(Cn2c(N3CCC4CCN[C@H]4C3)nc3ccccc32)nc1` (stereo partly drawn) [Example 26, 6-((2-((3aS,7aR)-hexahydro-1H-pyrrolo[2,3-c]pyridin-6(2H)-yl)-1H-benzo[d]imidazol-1-yl)methyl)nicotinointrile] the IC50 was 161 nM.
Compound `NC(=O)c1cnc(Cn2c(N3CC[C@H](F)[C@H](N)C3)nc3cc(C(F)(F)F)ccc32)cn1` [Example 123, 5-((2-((3R,4S)-3-amino-4-fluoro-1-piperidinyl)-5-(trifluoromethyl)-1H-benzimidazol-1-yl)methyl)-2-pyrazinecarboxamide] has an IC50 of 252 nM.
Work on `N[C@@H]1CN(c2nc3cc(F)c(F)cc3n2CC(=O)N2CCC2)CC[C@H]1F` [Example 236, 2-(2-((3R,4R)-3-amino-4-fluoropiperidin-1-yl)-5,6-difluoro-1H-benzo[d]imidazol-1-yl)-1-(azetidin-1-yl)ethanone] yielded an IC50 of 23.8 nM.
With `C[C@H](c1ccc(C#N)cn1)n1c(N2CC[C@H]3OCCN[C@@H]3C2)nc2c(F)cc(F)cc21` [Example 267, 6-((1R)-1-(4,6-difluoro-2-((4aR,8aR)-hexahydro-2H-pyrido[4,3-b][1,4]oxazin-6(5H)-yl)-1H-benzimidazol-1-yl)ethyl)-3-pyridinecarbonitrile] the IC50 was > 50000 nM.
Compound `CC1CN(C(=O)Cn2c(N3CC[C@@H](F)[C@H](N)C3)nc3cc(F)c(F)cc32)CCO1` (mixture of isomers) [Example 507] has an IC50 of 102 nM.
Work on `N#Cc1ccc(Cn2c(N3CC[C@@H](F)[C@H](N)C3)nc3cc(OC(F)(F)F)c(Cl)cc32)nc1` [Example 124, 6-((2-((3R,4R)-3-amino-4-fluoro-1-piperidinyl)-6-chloro-5-(trifluoromethoxy)-1H-benzimidazol-1-yl)methyl)-3-pyridinecarbonitrile] yielded an IC50 of 0.741 nM.
`CN[C@H]1CCCN(c2nc3ccc(C(F)(F)F)cc3n2Cc2ccc(C#N)cn2)C1` [Example 139, 6-((2-((3S)-3-(methylamino)-1-piperidinyl)-6-(trifluoromethyl)-1H-benzimidazol-1-yl)methyl)-3-pyridinecarbonitrile] showed an IC50 of 1.91 nM.
`C[C@@H](C#N)N(C)C(=O)Cn1c(N2CC[C@@H](F)[C@H](N)C2)nc2cc(F)c(F)cc21` [Example 610, 2-(2-((3R,4R)-3-amino-4-fluoropiperidin-1-yl)-5,6-difluoro-1H-benzo[d]imidazol-1-yl)-N-((S)-1-cyanoethyl)-N-methylacetamide] gave an IC50 of 21.2 nM.
`N#Cc1ccc(Cn2c(N3CC[C@H](F)[C@H](N)C3)nc3cc(F)ccc32)nc1` [Example 48, 6-((2-((3R,4S)-3-amino-4-fluoropiperidin-1-yl)-5-fluoro-1H-benzo[d]imidazol-1-yl)methyl)nicotinonitrile hydrochloride] was tested, and the IC50 was 2.21 nM.
For `COC[C@@H]1COCCN1C(=O)Cn1c(N2CC[C@@H](F)[C@H](N)C2)nc2ccc(F)cc21` [Example 680, 2-(2-((3R,4R)-3-amino-4-fluoropiperidin-1-yl)-6-fluoro-1H-benzo[d]imidazol-1-yl)-1-((R)-3-(methoxymethyl)morpholino) ethan-1-one], the IC50 was 153 nM.
`N#Cc1ccc(Cn2c(N3CCC[C@]4(CCN4)C3)nc3ccccc32)nc1` [Example 28, (S)-6-((2-(1,6-diazaspiro[3.5]nonan-6-yl)-1H-benzo[d]imidazol-1-yl)methyl)nicotinonitrile] was tested, and the IC50 was > 3750 nM.
Work on `N#Cc1ccc(Cn2c(N3CCC(F)(F)[C@H](N)C3)nc3ccc(C#N)cc32)nc1` [Example 55, (R)-2-(3-amino-4,4-difluoropiperidin-1-yl)-1-((5-cyanopyridin-2-yl)methyl)-1H-benzo[d]imidazole-6-carbonitrile] yielded an IC50 of 3.97 nM.
Work on `N[C@@H]1CN(c2nc3cc(F)c(F)cc3n2CC(=O)N2CCCCC2)CC[C@H]1F` [Example 281, 2-(2-((3R,4R)-3-amino-4-fluoro-1-piperidinyl)-5,6-difluoro-1H-benzimidazol-1-yl)-1-(1-piperidinyl)ethanone] yielded an IC50 of 26.9 nM.
For `N#Cc1ccc(Cn2c(N3CCC(F)(F)[C@H](N)C3)nc3cc(F)c(F)cc32)nc1` [Example 84, (R)-6-((2-(3-amino-4,4-difluoropiperidin-1-yl)-5,6-difluoro-1H-benzo[d]imidazol-1-yl)methyl)nicotinonitrile hydrochloride], the IC50 was 1.27 nM.
For `N#Cc1ccc(Cn2c(N3C[C@H]4NCCO[C@@H]4C3)nc3ccccc32)nc1` [Example 100, 6-((2-((4aR,7aR)-hexahydropyrrolo[3,4-b][1,4]oxazin-6(2H)-yl)-1H-benzo[d]imidazol-1-yl)methyl)nicotinonitrile], the IC50 was 60 nM.
With `N[C@@H]1CN(c2nc3cc(F)c(F)cc3n2CC(=O)N(CCO)C2CC2)CC[C@H]1F` [Example 617, 2-(2-((3R,4R)-3-amino-4-fluoropiperidin-1-yl)-5,6-difluoro-1H-benzo[d]imidazol-1-yl)-N-cyclopropyl-N-(2-hydroxyethyl)acetamide] the IC50 was 33.2 nM.

From patent US11332459B2 (TEIJIN PHARMA LIMITED, priority 2017, dated 2022)
